# Measured values as given in patent US20260325515A1, “TREATMENT OF CANINE CANCERS” (OneHealthCompany, Inc., priority 2023, published 2026).
# Tests used:
# Format in all cases: in vivo, canine (dogs)
# [1] = tested on: Osteosarcoma; experiment: Survival of dogs with osteosarcoma treated with Olaparib (Cox proportional-hazards model)
# From the text: (§1) A Cox proportional-hazards model was used to fit survival time. The model estimates the risk of death at a given time, h(t|X)=h(t)*exp(X1β1+ . . . +Xpβp), where h represents the risk of death at time t, and X represents p covariates. Additionally, the ratio of the hazard rates in the treatment group versus the control group is represented as the hazard ratio.
# (§2) A one-hot encoded feature for each targeted therapy (treatment) received by the dog was created. For example, if a dog receives multiple treatments, the encoding for each treatment would be a “1,” otherwise, a treatment is encoded as “0”. Similarly, gene mutations were one-hot encoded and treated as independent variables during the analyses. Tumor types were grouped into broad categories to preserve sample size and include them as one-hot encoded features.
# (§3) Each dog's survival time and status were determined based on their last known update, which was reported by the veterinarian's office. A dog is only considered deceased if there is a reported date of death, and is only considered to have survived up until the last known update. Two survival intervals were computed: survival from time of diagnosis and survival from time of treatment. When reporting hazard ratios regardless of intervention, survival time is defined as survival from time of diagnosis, which is the time from diagnosis to last known update if the dog is still active, and the time from diagnosis to death if the dog is deceased. When reporting hazard ratios for specific treatments, survival time is defined as survival from treatment. The first date of any targeted therapy being ordered is used as the start of the treatment date.
# (§4) Demographic features, including weight in kilograms, sex, and reproductive status (neutered or spayed vs intact), were extracted and used as covariates in the Cox model. In addition, to control for each dog's baseline survival rates, the dog's age at diagnosis, as well as the time from diagnosis to treatment are included, which is computed by […].
# [2] = tested on: TP53-mutated canine tumors; experiment: Real-world clinico-genomic analysis, TP53-mutated canine tumors
# Experimental: (§5) Briefly, real-world clinico-genomic data from 3000 dogs were analyzed.
# [3] = tested on: BRCA1-mutated cases; experiment: Real-world clinico-genomic analysis, BRCA1-mutated cases; conditions: Olaparib, P=0.004
# Experimental: as §5
# [4] = tested on: TP53 mutant osteosarcomas; experiment: Real-world clinico-genomic analysis, TP53 mutant osteosarcomas; conditions: Olaparib, P<0.001
# Experimental: as §5
# [5] = tested on: soft tissue sarcomas with TP53 mutations; experiment: Real-world clinico-genomic analysis, soft tissue sarcomas with TP53 mutations
# Experimental: as §5
# [6] = tested on: Anal Sac carcinoma; experiment: Survival of dogs with anal sac carcinoma with Olaparib; conditions: 85 without Olaparib
# From the text: A significant survival benefit in dogs with anal sac carcinoma treated with Olaparib was observed. Dogs receiving Olaparib achieved a median survival of 422 days compared to 273 days in untreated cases, with a hazard ratio of 0.319 and a statistically significant p-value of 0.023 (Table 2).
# [7] = tested on: oral malignant melanoma carrying BRCA1/2 mutations; experiment: Survival of dogs with oral malignant melanoma carrying BRCA1/2 mutations treated with Olaparib; conditions: oral malignant melanoma with BRCA1/2 mutations, vs 235 days for other biomarker profiles and alternative drugs, P=0.0120
# [8] = tested on: RB1-mutated canine tumors; experiment: Real-world clinico-genomic analysis, RB1-mutated canine tumors; conditions: Rapamycin, P=0.024
# Experimental: as §5
# [9] = tested on: Squamous cell carcinoma; experiment: Survival of dogs with squamous cell carcinoma treated with Toceranib (Cox proportional-hazards model)
# From the text: as §1, §2, §3, §4
# [10] = tested on: carcinoma; experiment: Survival of dogs with carcinoma with Toceranib; conditions: 65 without Toceranib
# From the text: Dogs receiving Toceranib achieved a median survival of 419 days compared to 250 days in untreated cases, with a hazard ratio of 0.292 and a statistically significant p-value of 0.003 (Table 3).
# [11] = tested on: Melanoma; experiment: Survival of dogs with melanoma treated with Palbociclib (Cox proportional-hazards model)
# From the text: as §1, §2, §3, §4
smiles,measurement,setting,value
O=C(c1cc(Cc2n[nH]c(=O)c3ccccc23)ccc1F)N1CCN(C(=O)C2CC2)CC1 [Olaparib],Median survival (#patients) with treatment,"[1]; dogs, 16 patients with treatment, 154 d (158) without treatment",Inf (16)
same,Hazard Ratio (Signal Efficacy),"[1]; dogs, treatment vs control, P = 0.021",0.181
same,median survival,[1]; vs. 154 days without treatment,no death observed
same,OS HR,"[2]; TP53-mutated cases, Olaparib, P<0.001",0.34
same,OS HR,[3],0.39
same,OS HR,[4],0.11
same,OS HR,"[5]; Olaparib, P=0.011",0.07
same,Median Survival With Olaparib,"[6]; 13 dogs with, without Olaparib 372 days (Table 2) / 273 days",422 days
same,Hazard Ratio,"[6]; 95% CI (0.119-0.855), p-value 0.023, 13 dogs with",0.319
same,median survival,[7],448 days
CO[C@H]1C[C@@H]2CC[C@@H](C)[C@@](O)(O2)C(=O)C(=O)N2CCCC[C@H]2C(=O)O[C@H]([C@H](C)C[C@@H]2CC[C@@H](O)[C@H](OC)C2)CC(=O)[C@H](C)/C=C(\C)[C@@H](O)[C@@H](OC)C(=O)[C@H](C)C[C@H](C)/C=C/C=C/C=C/1C [Rapamycin],OS HR,"[2]; TP53-mutated canine tumors, Rapamycin, P=0.028",0.73
same,OS HR,[8],0.32
same,OS HR,"[5]; Rapamycin, P=0.012",0.11
Cc1[nH]c(/C=C2\C(=O)Nc3ccc(F)cc32)c(C)c1C(=O)NCCN1CCCC1 [Toceranib],Median survival (#patients) with treatment,"[9]; dogs, 13 patients with treatment, 183 d (32) without treatment",577 d (13)
same,Hazard Ratio (Signal Efficacy),"[9]; dogs, treatment vs control, P = 0.005",0.072
same,median survival,[9]; vs. 183 days without treatment,577 days
same,Median Survival With Toceranib,"[10]; 26 dogs with, without Toceranib 250 days",419 days
same,Hazard Ratio,"[10]; 95% CI printed (1.31-0.65), p-value 0.003, 26 dogs with",0.292
CC(=O)c1c(C)c2cnc(Nc3ccc(N4CCNCC4)cn3)nc2n(C2CCCC2)c1=O [Palbociclib],Median survival (#patients) with treatment,"[11]; dogs, 13 patients with treatment, 159 d (114) without treatment",433 d (13)
same,Hazard Ratio (Signal Efficacy),"[11]; dogs, treatment vs control, P = 0.043",0.273
same,median survival,[11]; vs. 159 days without treatment,433 days
